# Target: T1, Bovine PDE6 (Bos taurus, UniProt P11541+P23439)
# T1 construct: Hypotonic extracts were prepared by suspending isolated ROS; tissue Dr. N. Virmaux, INSERM U338, Strasbourg; host or cells: bovine retina, rod outer segment hypotonic extract
# T1 sequence (P11541 2-856 limits assumed): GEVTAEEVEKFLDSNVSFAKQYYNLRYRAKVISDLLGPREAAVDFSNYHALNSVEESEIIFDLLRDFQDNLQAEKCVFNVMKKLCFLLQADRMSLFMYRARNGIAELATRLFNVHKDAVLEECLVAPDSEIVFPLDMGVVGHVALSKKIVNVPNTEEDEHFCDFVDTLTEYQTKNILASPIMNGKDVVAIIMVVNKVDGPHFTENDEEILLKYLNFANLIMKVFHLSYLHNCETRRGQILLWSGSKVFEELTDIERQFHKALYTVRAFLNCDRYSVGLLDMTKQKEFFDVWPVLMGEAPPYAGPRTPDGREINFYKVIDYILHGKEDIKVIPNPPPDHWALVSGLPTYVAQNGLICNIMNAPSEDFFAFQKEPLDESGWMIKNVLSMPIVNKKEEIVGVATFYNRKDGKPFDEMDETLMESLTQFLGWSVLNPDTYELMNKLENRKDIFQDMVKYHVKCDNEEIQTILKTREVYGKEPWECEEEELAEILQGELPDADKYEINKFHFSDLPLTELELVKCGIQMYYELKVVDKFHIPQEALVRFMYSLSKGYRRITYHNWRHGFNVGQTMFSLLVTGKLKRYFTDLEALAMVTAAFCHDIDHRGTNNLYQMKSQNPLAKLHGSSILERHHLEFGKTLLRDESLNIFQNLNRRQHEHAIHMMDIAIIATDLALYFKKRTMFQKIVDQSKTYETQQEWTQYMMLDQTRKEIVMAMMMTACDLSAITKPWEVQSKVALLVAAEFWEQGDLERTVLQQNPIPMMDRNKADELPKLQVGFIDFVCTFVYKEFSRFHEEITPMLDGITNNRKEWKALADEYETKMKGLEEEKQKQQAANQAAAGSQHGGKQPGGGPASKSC
# T1 sequence (P23439 2-850 limits assumed): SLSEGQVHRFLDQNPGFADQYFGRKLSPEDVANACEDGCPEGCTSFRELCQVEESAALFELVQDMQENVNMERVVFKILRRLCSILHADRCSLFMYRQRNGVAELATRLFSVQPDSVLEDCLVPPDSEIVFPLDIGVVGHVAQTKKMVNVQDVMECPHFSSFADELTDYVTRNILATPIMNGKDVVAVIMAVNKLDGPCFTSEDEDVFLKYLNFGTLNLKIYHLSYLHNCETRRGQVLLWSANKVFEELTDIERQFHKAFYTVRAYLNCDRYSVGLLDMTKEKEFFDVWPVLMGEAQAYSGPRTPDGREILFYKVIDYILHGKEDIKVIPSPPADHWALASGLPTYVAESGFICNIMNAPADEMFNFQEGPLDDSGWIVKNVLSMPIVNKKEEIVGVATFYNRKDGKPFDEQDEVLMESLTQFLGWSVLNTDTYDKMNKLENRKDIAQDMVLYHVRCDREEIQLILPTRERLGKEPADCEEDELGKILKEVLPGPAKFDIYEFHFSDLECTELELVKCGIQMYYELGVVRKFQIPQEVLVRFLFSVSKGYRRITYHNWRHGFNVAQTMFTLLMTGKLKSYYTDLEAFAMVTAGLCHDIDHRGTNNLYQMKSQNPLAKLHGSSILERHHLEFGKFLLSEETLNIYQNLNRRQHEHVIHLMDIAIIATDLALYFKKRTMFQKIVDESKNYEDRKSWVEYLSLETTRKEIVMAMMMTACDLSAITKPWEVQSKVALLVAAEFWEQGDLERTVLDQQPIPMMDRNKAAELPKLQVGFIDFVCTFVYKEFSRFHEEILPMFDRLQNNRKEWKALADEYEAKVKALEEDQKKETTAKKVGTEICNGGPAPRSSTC
# T1 sequence (P04972 1-87 partner): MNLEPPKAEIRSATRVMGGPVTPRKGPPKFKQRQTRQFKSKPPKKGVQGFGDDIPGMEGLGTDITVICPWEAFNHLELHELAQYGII
# Assay: PDE6 enzyme inhibition, IC50 determination
# Format: biochemical
# Experimental: Bovine PDE6 was supplied by Dr. N. Virmaux, INSERM U338, Strasbourg. Bovine retinas were prepared as described by Virmaux et al., FEBS Letters, 12(6), pp. 325-328 (1971) and see also, A. Sitaramayya et al., Exp. Eye Res., 25, pp. 163-169 (1977). Briefly, unless stated otherwise, all operations were done in the cold and in dim red light. Eyes were kept in the cold and in the dark for up to four hours after slaughtering.
# Preparation of bovine retinal outer segment (ROS) basically followed procedures described by Schichi et al., J. Biol. Chem., 224:529 (1969). In a typical experiment, 35 bovine retinas were ground in a mortar with 35 mL 0.066 M phosphate buffer, pH 7.0, made up to 40% with sucrose, followed by homogenization in a Potter homogenizer (20 up and down strokes). The suspension was centrifuged at 25,000×g for 20 minutes. The pellet was homogenized in 7.5 mL 0.006 M phosphate buffer (40% in sucrose), and carefully layered under 7.5 mL of phosphate buffer (containing no sucrose). Centrifugation was conducted in a swing-out rotor at 45,000×g for 20 minutes, and produced a pellet which is black at the bottom, and also a red band at the interface 0.066 M. phosphate—40% sucrose/0.066 M phosphate (crude ROS). The red material at the interface was removed, diluted with phosphate buffer, spun down to a pellet, and redistributed in buffered 40% sucrose as described above. This procedure was repeated 2 or 3 times until no pellet was formed. The purified ROS was washed in phosphate buffer and finally spun down to a pellet at 25,000×g for 20 minutes. All materials were then kept frozen until used.
# Hypotonic extracts were prepared by suspending isolated ROS in 10 mM Tris-Cl pH 7.5, 1 mM EDTA, and 1 mM dithioerythritol, followed by centrifugation at 100,000×g for 30 minutes.
# The preparation was reported to have a specific activity of about 35 nmoles cGMP hydrolyzed per minute per milligram protein.
# Biophys. Acta, 384:430 (1975).
smiles,measurement,value
"CN1CC(=O)N2[C@H](c3ccc4c(c3)OCO4)c3[nH]c4ccccc4c3C[C@@H]2C1=O [Compound 5, (6R-trans)-6-(1,3-benzodioxol-5-yl)-2,3,6,7,12,12a-hexahydro-2-methylpyrazino[1′,2′:1,6]pyrido[3,4-b]indole-1,4-dione]",IC50,3.4 µM

# Reference: patent US6451807B1, “Methods of treating sexual dysfunction in an individual suffering from a retinal disease, class 1 congestive heart failure, or myocardial infarction using a PDE5 inhibitor” (Lilly Icos, LLC., priority 1999, dated 2002)
